Reference: patent publication US9668962B2, “Compositions and related methods for oral wellness” (NOWSystem, Inc., priority 2012, dated 2017)

Assays:
P. gingivalis [1] = assay: zone of inhibition on blood agar, drop technique and line method (Example 3); type: cell-based, Porphyromonas gingivalis; settings: control spot, dilution not given; after 5 days of incubation
Experimental: (§1) Experimental Design: Blood agar (for the 3 anaerobic bacteria, 3 facultative bacteria and 1 aerobic yeast; Fisher Scientific) plates were individually swabbed with fresh 24 h broth cultures of C. rectus, Aggregatibacter actinomycetemcomitans (A.a), C. albicans, P. gingivalis, P. intermedia, F. nucleatum and S. mutans to provide a confluent lawn of microbial growth. Five minutes after swabbing the plates (to allow the inoculum to absorb into the agar), the test and control specimens (see below) were aseptically pipetted (5 ul) onto designated places on the plates and allowed to adsorb (or adhere, in the case of the undiluted sera) into the agar. Assays were conducted in duplicate and undiluted and 1:5 and 1:10 dilutions of the solutions and sterile saline (negative control) and chlorhexidine (CHX) were used. […] The diameter of each zone was measured in mm. The zones of inhibition of each dilution sample were compared to the zones of control saline without antimicrobial components. If the zones of the solutions were the same size (or smaller) than the inhibition zones from the control saline than there was judged no inhibition of antimicrobial activity by the antimicrobial solutions. Conversely, if the zones of the solutions were larger than the inhibition zones from the control saline than there was judged significant antimicrobial activity by the solutions. […]

S. mutans [2] = assay: zone of inhibition on blood agar, drop technique and line method (Example 2); type: cell-based, Streptococcus mutans; settings: control, 3 ul of 20%; after 3 days of incubation
Experimental: (§2) Experimental Design: Blood agar (for the 3 anaerobic bacteria, 1 facultative bacterium and 1 aerobic yeast; Fisher Scientific) plates were individually swabbed with fresh 24 h broth cultures of C. albicans, P. gingivalis, P. intermedia, F. nucleatum and S. mutans to provide a confluent lawn of microbial growth. […] Assays were conducted in duplicate and undiluted and 1:5 and 1:10 dilutions of the solutions and sterile saline (negative control) were used. The plates were incubated agar-side up at 37° C. in a GasPak anaerobic jar or in 5% CO2 for 72 h. Plates were examined at 72 h for zones of inhibition of growth of the microbes. The diameter of each zone was measured in mm. The zones of inhibition of each dilution sample were compared to the zones of control saline without antimicrobial components. If the zones of the solutions were the same size (or smaller) than the inhibition zones from the control saline than there was judged no inhibition of antimicrobial activity by the antimicrobial solutions. Conversely, if the zones of the solutions were larger than the inhibition zones from the control saline than there was judged significant antimicrobial activity by the solutions. It was anticipated that there will be significant inhibition of microbial growth by at least some of the antimicrobial wheat grass products. […]

S. mutans [3] = assay: zone of inhibition on blood agar, drop technique and line method (Example 3); type: cell-based, Streptococcus mutans; settings: control spot, dilution not given; after 5 days of incubation
Experimental: as §1

P. intermedia [4] = assay: zone of inhibition on blood agar, drop technique and line method (Example 2); type: cell-based, Prevotella intermedia; settings: control, 3 ul of 20%; after 3 days of incubation
Experimental: Experimental Design: Blood agar (for the 3 anaerobic bacteria, 1 facultative bacterium and 1 aerobic yeast; Fisher Scientific) plates were individually swabbed with fresh 24 h broth cultures of C. albicans, P. gingivalis, P. intermedia, F. nucleatum and S. mutans to provide a confluent lawn of microbial growth. Five minutes after swabbing the plates (to allow the inoculum to absorb into the agar), the test and control specimens ([…] adhere, in the case of the undiluted sera) into the agar. Assays were conducted in duplicate and undiluted and 1:5 and 1:10 dilutions of the solutions and sterile saline (negative control) were used. The plates were incubated agar-side up at 37° C. in a GasPak anaerobic jar or in 5% CO2 for 72 h. Plates were examined at 72 h for zones of inhibition of growth of the microbes. The diameter of each zone was measured in mm. The zones of inhibition of each dilution sample were compared to the zones of control saline without antimicrobial components. If the zones of the solutions were the same size (or smaller) than the inhibition zones from the control saline than there was judged no inhibition of antimicrobial activity by the antimicrobial solutions. Conversely, if the zones of the solutions were larger than the inhibition zones from the control saline than there was judged significant antimicrobial activity by the solutions. […]

C. albicans = assay: zone of inhibition on blood agar, drop technique and line method (Example 3); type: cell-based, Candida albicans; settings: control spot, dilution not given; after 5 days of incubation
Experimental: as §1

F. nucleatum [5] = assay: zone of inhibition on blood agar, drop technique and line method (Example 2); type: cell-based, Fusobacterium nucleatum; settings: control, 3 ul of 20%; after 3 days of incubation
Experimental: as §2

[6] = test system: Aggregatibacter actinomycetemcomitans (A.a); assay: zone of inhibition on blood agar, drop technique and line method (Example 3); type: cell-based; settings: control spot, dilution not given; after 5 days of incubation
Experimental: as §1

[7] = test system: C. rectus, Aggregatibacter actinomycetemcomitans (A.a), C. albicans, P. gingivalis, P. intermedia, F. nucleatum and S. mutans; assay: in vitro antimicrobial activity, summary over the seven microbes (Example 3); type: cell-based; settings: overall summary of Example 3
Experimental: Experimental Design: Blood agar (for the 3 anaerobic bacteria, 3 facultative bacteria and 1 aerobic yeast; Fisher Scientific) plates were individually swabbed with fresh 24 h broth cultures of C. rectus, Aggregatibacter actinomycetemcomitans (A.a), C. albicans, P. gingivalis, P. intermedia, F. nucleatum and S. mutans to provide a confluent lawn of microbial growth. Five minutes after swabbing the plates (to allow the inoculum to absorb into the agar), the test and control specimens (see below) were aseptically pipetted (5 ul) onto designated places on the plates and allowed to adsorb (or adhere, in the case of the undiluted sera) into the agar. Assays were conducted in duplicate and undiluted and 1:5 and 1:10 dilutions of the solutions and sterile saline (negative control) and chlorhexidine (CHX) were used. The plates were incubated agar-side up at 37° C. in a GasPak anaerobic jar or in 5% CO2 for 72 h. Plates were examined at 72 h for zones of inhibition of growth of the microbes. The diameter of each zone was measured in mm. The zones of inhibition of each dilution sample were compared to the zones of control saline without antimicrobial components. If the zones of the solutions were the same size (or smaller) than the inhibition zones from the control saline than there was judged no inhibition of antimicrobial activity by the antimicrobial solutions. […]

C. rectus = assay: zone of inhibition on blood agar, drop technique and line method (Example 3); type: cell-based, Campylobacter rectus; settings: control spot, dilution not given; after 5 days of incubation
Experimental: as §1, with “The” for “The diameter of each zone was measured in mm. The”

F. nucleatum [8] = assay: as above; type: cell-based, Fusobacterium nucleatum; settings: control spot, dilution not given; after 5 days of incubation
Experimental: as §1

P. gingivalis [9] = assay: zone of inhibition on blood agar, drop technique and line method (Example 2); type: cell-based, Porphyromonas gingivalis; settings: control, 3 ul of 20%; after 3 days of incubation
Experimental: Experimental Design: Blood agar (for the 3 anaerobic bacteria, 1 facultative bacterium and 1 aerobic yeast; Fisher Scientific) plates were individually swabbed with fresh 24 h broth cultures of C. albicans, P. gingivalis, P. intermedia, F. nucleatum and S. mutans to provide a confluent lawn of microbial growth. Five minutes after swabbing the plates (to allow the inoculum to absorb into the agar), the test and control specimens ([…]) onto designated places on the plates and allowed to adsorb (or adhere, in the case of the undiluted sera) into the agar. Assays were conducted in duplicate and undiluted and 1:5 and 1:10 dilutions of the solutions and sterile saline (negative control) were used. The plates were incubated agar-side up at 37° C. in a GasPak anaerobic jar or in 5% CO2 for 72 h. Plates were examined at 72 h for zones of inhibition of growth of the microbes. The diameter of each zone was measured in mm. The zones of inhibition of each dilution sample were compared to the zones of control saline without antimicrobial components. If the zones of the solutions were the same size (or smaller) than the inhibition zones from the control saline than there was judged no inhibition of antimicrobial activity by the antimicrobial solutions. […]

P. intermedia [10] = assay: zone of inhibition on blood agar, drop technique and line method (Example 3); type: cell-based, Prevotella intermedia; settings: control spot, dilution not given; after 5 days of incubation
Experimental: as §1

[H]/N=C(\N/C(=N/[H])NCCCCCCNC(=N)NC(=N)Nc1ccc(Cl)cc1)Nc1ccc(Cl)cc1 [Chlorhexidine, chlorhexidine]
circumference of zone of inhibition (P. gingivalis [1]): 14 mm | zone of inhibition (S. mutans [2]): 19 mm | diameter of zone of inhibition (S. mutans [3]): 16 mm | zone of inhibition (P. intermedia [4]): 24 mm | circumference of zone of inhibition (C. albicans): 20 mm | zone of inhibition (F. nucleatum [5]): 40 mm | circumference of zone of inhibition [6]: 11 mm | inhibition of growth of the seven species, in words [7]: inhibited the microbial growth of each species | circumference of zone of inhibition (C. rectus): 16 mm | circumference of zone of inhibition (F. nucleatum [8]): 15 mm | zone of inhibition (P. gingivalis [9]): 25 mm | diameter of zone of inhibition (P. intermedia [10]): 20 mm
